Laboratory results published in ChEMBL document CHEMBL4017447, “Indenocinnoline derivatives as G-quadruplex binders, topoisomerase IIα inhibitors and antiproliferative agents” (Bioorg Med Chem, 2017).
Calls of active or inactive are those of the source. The rule behind the calls is not given here.

Legend:
[1] = Binding affinity to double stranded DNA (unknown origin) assessed as compound concentration required for 30% displacement of thiazole orange from double stranded DNA by fluorescent intercalator displacement assay
[2] = species on record: Homo sapiens; experiment: Binding affinity to human telomeric 22 G-quadruplex DNA assessed as compound concentration required for 30% displacement of thiazole orange from telomeric 22 G-quadruplex DNA by fluorescent intercalator displacement assay
[3] = Binding affinity to cKit G-quadruplex DNA (unknown origin) assessed as compound concentration required for 30% displacement of thiazole orange from cKit G-quadruplex DNA by fluorescent intercalator displacement assay
[4] = tested on: HeLa; experiment: Cytotoxicity against human HeLa cells after 72 hrs by MTT assay; assay type: functional, cell-based
[5] = tested on: MCF7; experiment: Cytotoxicity against human MCF7 cells after 72 hrs by MTT assay; assay type: functional, cell-based; conditions: MCF7, 72 h
[6] = tested on: Escherichia coli; experiment: Binding affinity to Escherichia coli supercoiled pBR322 DNA assessed as DNA intercalation by measuring DNA unwinding at 0.1 to 10 uM measured after 1 hr by ethidium bromide staining based agarose gel electrophoresis
[7] = Binding affinity to 5'-dabcyl/3'-fluorescein labeled double stranded DNA (unknown origin) assessed as change in melting temperature at 10 uM by fluorescence assay
[8] = species on record: Homo sapiens; experiment: Binding affinity to 5'-dabcyl/3'-fluorescein labeled human telomeric sequence G-quadruplex DNA assessed as change in melting temperature at 10 uM by fluorescence assay
[9] = Binding affinity to 5'-dabcyl/3'-fluorescein labeled cKit G-quadruplex DNA (unknown origin) assessed as change in melting temperature at 10 uM by fluorescence assay
[10] = molecular target: DNA topoisomerase 2-alpha (Homo sapiens, UniProt P11388); experiment: Inhibition of human topoisomerase 2alpha-mediated kinetoplast DNA decatenation after 60 mins by ethidium bromide staining based agarose gel electrophoresis
[11] = Inhibition of Escherichia coli DNA topoisomerase 4 decatenation activity using kinetoplast DNA as substrate after 60 mins by ethidium bromide staining based agarose gel electrophoresis
[12] = tested on: Escherichia coli; experiment: Binding affinity to Escherichia coli supercoiled pBR322 DNA assessed as DNA intercalation by measuring DNA unwinding at 100 uM measured after 1 hr by ethidium bromide staining based agarose gel electrophoresis
[13] = tested on: Escherichia coli; experiment: Binding affinity to Escherichia coli supercoiled pBR322 DNA assessed as DNA intercalation by measuring DNA unwinding up to 100 uM measured after 1 hr by ethidium bromide staining based agarose gel electrophoresis
[14] = tested on: HeLa; experiment: Potency index, ratio of ametantrone IC50 to compound IC50 for human HeLa cells; assay type: functional
[15] = tested on: MCF7; experiment: Potency index, ratio of ametantrone IC50 to compound IC50 for human MCF7 cells; assay type: functional
[16] = tested on: Escherichia coli; experiment: Inhibition of Escherichia coli DNA topoisomerase 4 decatenation activity up to 100 uM using kinetoplast DNA as substrate after 60 mins by ethidium bromide staining based agarose gel electrophoresis
[17] = tested on: Escherichia coli; experiment: Binding affinity to Escherichia coli supercoiled pBR322 DNA assessed as DNA intercalation by measuring DNA unwinding at 10 uM measured after 1 hr by ethidium bromide staining based agarose gel electrophoresis

DNA topoisomerase 2-alpha, sequence (P11388 whole entry): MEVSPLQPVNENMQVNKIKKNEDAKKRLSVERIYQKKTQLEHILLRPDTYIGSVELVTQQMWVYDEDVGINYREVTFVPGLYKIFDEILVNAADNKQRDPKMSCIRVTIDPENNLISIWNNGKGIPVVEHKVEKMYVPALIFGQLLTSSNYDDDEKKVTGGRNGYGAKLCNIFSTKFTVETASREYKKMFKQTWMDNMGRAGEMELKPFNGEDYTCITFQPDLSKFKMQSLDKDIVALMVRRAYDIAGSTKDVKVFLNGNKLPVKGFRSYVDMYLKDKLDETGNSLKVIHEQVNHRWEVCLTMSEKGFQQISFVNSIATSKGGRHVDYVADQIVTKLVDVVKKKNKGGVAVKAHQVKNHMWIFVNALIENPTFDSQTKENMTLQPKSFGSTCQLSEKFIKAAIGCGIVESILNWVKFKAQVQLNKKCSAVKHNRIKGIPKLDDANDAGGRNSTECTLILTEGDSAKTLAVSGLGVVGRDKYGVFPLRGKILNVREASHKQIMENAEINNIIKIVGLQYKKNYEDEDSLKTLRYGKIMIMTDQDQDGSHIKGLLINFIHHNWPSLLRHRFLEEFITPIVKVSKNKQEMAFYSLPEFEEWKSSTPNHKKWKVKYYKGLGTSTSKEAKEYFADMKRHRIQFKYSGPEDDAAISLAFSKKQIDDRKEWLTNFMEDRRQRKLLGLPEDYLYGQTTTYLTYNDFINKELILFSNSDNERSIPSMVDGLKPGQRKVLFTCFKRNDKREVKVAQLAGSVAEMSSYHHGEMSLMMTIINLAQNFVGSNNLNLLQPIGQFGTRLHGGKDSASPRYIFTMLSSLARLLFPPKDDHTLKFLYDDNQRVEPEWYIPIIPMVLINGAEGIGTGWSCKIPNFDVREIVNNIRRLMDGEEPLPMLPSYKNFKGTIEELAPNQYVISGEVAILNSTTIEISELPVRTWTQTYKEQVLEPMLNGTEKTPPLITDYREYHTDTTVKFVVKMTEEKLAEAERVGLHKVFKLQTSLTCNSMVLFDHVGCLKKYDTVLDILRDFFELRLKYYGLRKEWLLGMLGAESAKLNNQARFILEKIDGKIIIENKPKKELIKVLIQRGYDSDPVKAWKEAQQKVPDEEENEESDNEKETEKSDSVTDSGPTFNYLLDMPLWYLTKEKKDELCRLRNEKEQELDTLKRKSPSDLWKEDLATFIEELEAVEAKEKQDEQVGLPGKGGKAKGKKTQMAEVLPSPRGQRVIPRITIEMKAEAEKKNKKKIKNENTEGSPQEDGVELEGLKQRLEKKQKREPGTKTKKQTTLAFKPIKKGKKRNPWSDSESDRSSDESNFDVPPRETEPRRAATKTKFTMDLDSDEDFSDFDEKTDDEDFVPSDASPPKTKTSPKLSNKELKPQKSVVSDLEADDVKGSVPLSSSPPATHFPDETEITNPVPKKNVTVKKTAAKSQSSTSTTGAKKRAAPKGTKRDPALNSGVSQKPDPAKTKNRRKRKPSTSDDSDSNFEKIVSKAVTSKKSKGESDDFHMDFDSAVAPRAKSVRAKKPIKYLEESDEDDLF

Row | SMILES | Activity [1] | Activity [2] | Activity [3] | IC50 [4] | IC50 [5] | ΔTm [8] | ΔTm [9] | IC50 [10] | IC50 [11] | ΔTm [7] | further results
1 | CN(C)CCCn1c(=O)c2nc3ccccc3nc2c2ccccc21 | 10.9 µM | inactive | 3.57 µM |  |  |  |  |  |  |  | 
2 | O=C1c2ccccc2C(=O)c2c(NCCNCCO)ccc(NCCNCCO)c21 [AMETANTRONE] |  |  |  | 0.9 µM | 0.51 µM |  |  |  |  |  | 
3 | COc1cccc2c1C(=O)c1c(O)c3c(c(O)c1C2=O)C[C@@](O)(C(=O)CO)C[C@@H]3O[C@H]1C[C@H](N)[C@H](O)[C@H](C)O1 |  |  |  |  |  |  |  |  |  |  | Activity [6]: Active
4 | CN(C)CCOc1ccc2c(ccc3c4c(nnc32)-c2ccccc2C4=O)c1 | 16 µM | inactive | 2.08 µM | > 100 µM | > 100 µM | 5.69 °C | 9.18 °C | > 100 µM | > 100 µM |  | deltaTm [7]: inactive; Activity [12]: Active
5 | CN(C)CCCCNC(=O)c1ccc2nnc3c(c2c1)C(=O)c1ccccc1-3 |  |  |  | 0.045 µM | 0.085 µM | 9.35 °C | 12.4 °C | 7.08 µM | > 100 µM | 2.7 °C | Activity [13]: inactive; Ratio IC50 [14]: 20; Ratio IC50 [15]: 6
6 | O=C1c2ccccc2-c2nnc3ccccc3c21 |  |  |  | 0.57 µM | 0.81 µM |  |  | > 100 µM | > 100 µM |  | Activity [13]: inactive
7 | COc1ccc2cc3[n+](cc2c1OC)CCc1cc2c(cc1-3)OCO2 |  | > 10 µM | > 10 µM |  |  | 9.68 °C | 10.3 °C |  |  | 0.34 °C | 
8 | CN(C)CCNC(=O)c1ccc2nnc3c(c2c1)C(=O)c1ccccc1-3 |  |  |  | 0.35 µM | 0.28 µM | 5.95 °C | 6.8 °C | 13.4 µM | > 100 µM | 1.19 °C | Activity [13]: inactive
9 | CCN(CC)CCCCNC(=O)c1ccc2nnc3c(c2c1)C(=O)c1ccccc1-3 |  |  |  |  |  | 3.77 °C | 3.01 °C |  |  | 0.53 °C | 
10 | CN(C)CCCOc1ccc2ccc3c4c(nnc3c2c1)-c1ccccc1C4=O | 4.06 µM | 2.43 µM | 0.95 µM | 2.81 µM | 9.79 µM | 20.8 °C | 23.1 °C | 29.1 µM | > 100 µM | 1.96 °C | Activity [12]: Active
11 | CN(C)CCOc1ccc2ccc3c4c(nnc3c2c1)-c1ccccc1C4=O | 1.36 µM | 0.52 µM | 0.47 µM | 5.96 µM | 3.72 µM | 25.6 °C | 28 °C | 5.44 µM |  | 5.27 °C | inhibition [16]: inactive; Activity [17]: Active
12 | O=C(NCCCCN1CCOCC1)c1ccc2nnc3c(c2c1)C(=O)c1ccccc1-3 |  |  |  |  |  | 4.82 °C | 4.37 °C |  |  |  | deltaTm [7]: inactive
13 | CN(C)CCCOc1ccc2c(ccc3c4c(nnc32)-c2ccccc2C4=O)c1 | 7.81 µM | 4.75 µM | 1.5 µM | 3.05 µM | 6.75 µM | 16.1 °C | 19.2 °C | 52.9 µM | > 100 µM | 0.85 °C | Activity [12]: Active
14 | CN(C)CCCNC(=O)c1ccc2nnc3c(c2c1)C(=O)c1ccccc1-3 |  |  |  | 0.27 µM | 0.17 µM | 7.91 °C | 8.5 °C | 4.88 µM | > 100 µM | 1.95 °C | Activity [13]: inactive
15 | O=C(NCCCCN1CCCCC1)c1ccc2nnc3c(c2c1)C(=O)c1ccccc1-3 |  |  |  |  |  | 6.63 °C | 5.42 °C |  |  | 0.9 °C | 
16 | CO[C@@H]1[C@@H](OC(N)=O)[C@@H](O)[C@H](Oc2ccc3c(O)c(NC(=O)c4ccc(O)c(CC=C(C)C)c4)c(=O)oc3c2C)OC1(C)C [NOVOBIOCIN] |  |  |  |  |  |  |  |  | 63.4 µM |  | 
